# From patent US7705016B2, “Regulation of food intake by modulation of long-chain fatty acyl-CoA levels in the hypothalamus” (Albert Einstein College of Medicine of Yeshiva University, priority 2003, dated 2010)
# Target: T1, CPT1L (Rattus norvegicus, UniProt P32198)
# T1 construct: from tissue; host or cells: hypothalamus (arcuate nucleus) of male Sprague-Dawley rats, in vivo or ex vivo
# T1 sequence (P32198 1-773): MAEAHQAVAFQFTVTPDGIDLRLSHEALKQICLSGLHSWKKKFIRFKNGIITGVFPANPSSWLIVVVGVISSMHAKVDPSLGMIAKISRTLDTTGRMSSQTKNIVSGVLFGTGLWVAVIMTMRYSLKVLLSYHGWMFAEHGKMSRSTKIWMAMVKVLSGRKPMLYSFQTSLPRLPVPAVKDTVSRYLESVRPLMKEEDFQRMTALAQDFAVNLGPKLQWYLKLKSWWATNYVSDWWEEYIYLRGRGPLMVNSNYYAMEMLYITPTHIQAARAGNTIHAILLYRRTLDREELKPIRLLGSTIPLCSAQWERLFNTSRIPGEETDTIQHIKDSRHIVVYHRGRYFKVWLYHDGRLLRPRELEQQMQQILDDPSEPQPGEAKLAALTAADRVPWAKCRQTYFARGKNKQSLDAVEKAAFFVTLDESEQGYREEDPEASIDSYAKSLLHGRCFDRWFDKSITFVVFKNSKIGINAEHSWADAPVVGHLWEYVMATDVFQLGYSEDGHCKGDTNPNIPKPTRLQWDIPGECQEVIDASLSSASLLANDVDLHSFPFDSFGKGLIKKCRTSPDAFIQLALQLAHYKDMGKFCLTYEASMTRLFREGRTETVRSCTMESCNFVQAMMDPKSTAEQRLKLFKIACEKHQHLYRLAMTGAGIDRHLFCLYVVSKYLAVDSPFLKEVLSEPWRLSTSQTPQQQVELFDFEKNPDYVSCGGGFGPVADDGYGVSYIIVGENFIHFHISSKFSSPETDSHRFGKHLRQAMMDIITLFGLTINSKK
# Assay: LC-CoA levels in hypothalamic nuclei by HPLC after ICV CPT1 inhibitor
# Assay type: in vivo
# Conditions: ICV administration
# Method: Surgical implantation of ICV cannulae was performed on day 1 (˜3 weeks prior to the in vivo study). Full recovery of body weight and food intake was achieved by day 7. Rats randomized for ribozyme treatment received an ICV injection of CPT1L-Ribo, CPT inhibitors or controls on day 17. The experimental group treated with TDGA received ICV injection of the inhibitor on day 21, 6 hr prior to the harvesting of brains. Panels B. and C. show quantitation of CPT1L (B) and CPT1M (C) mRNA by real-time PCR. RNA was purified from individual hypothalamic nuclei (PVN, LHA, and arcuate), which were obtained by micro punch technique 3 days after ICV injection of pTarget control (▪; N=4) or CPT1LRibo (□; N=5). Copy number of CPT1 mRNA is normalized to β-Actin copy number ×10^6. Panels D. and E. show CPT1 activity in individual arcuate nuclei (D) or whole hypothalamus (E). Brains were harvested 6 hr or 3 days […] the ICV injection of TDGA or CPT1L-Ribo respectively, and arcuate nuclei were punched out. CPT1 activity was measured in the particulate fraction of protein extracts from animals treated with ICV control injections (▪; N=6, receiving aCSF+2% DMSO or Control Ribo), TDGA ( ?; N=6), or CPTL-Ribo (□; N=5). Panels F and E establish that ICV administration of CPT1 inhibitors increases levels of LC-CoAs in arcuate. Levels of stearoyl-CoA (F) and oleyl-CoA (E) respectively were measured by HPLC in arcuate of rats injected ICV with control compound (▪; ST1340) or ST1326 (□).
# ICV catheters were implanted in male Sprague-Dawley rats by stereotaxic surgery (Obici et al., 2002a; Obici et al., 2001; Liu et al., 1998). The biochemical or molecular analyses, the metabolic or the feeding experiments were performed ˜3 weeks later following complete recovery from the operation (FIG. 2a). CPT1L-Ribo was delivered ICV three days prior to experimental tests (FIG. 2a). […] Thus, we next measured CPT1 activity in ARC and in whole hypothalamus. […]
smiles,measurement,setting,value
"CCCCCCCCCCCCCCNC(=O)N[C@H](CC(=O)[O-])C[N+](C)(C)C [ST1326, (R)-N-(tetradecylcarbamoyl)-aminocarnitine]",Oleyl-CoA levels in ARC,,marked increase
same,stearoyl-CoA levels in ARC,,marked increase
same,Other LC-CoAs,data not shown,significantly increased
